Results taken from patent US11613522B2, “Herbicidally active 3-phenylisoxazoline-5-carboxamides of tetrahydro- and dihydrofurancarboxamides” (BAYER AKTIENGESELLSCHAFT, priority 2017, dated 2023).

Legend:
Type in all cases: in vivo
Viola tricolor [1] = test: Post-emergence herbicidal activity against VIOTR; details: dosage 320 g/ha, rated visually after about 3 weeks; for pest or weed control at 320 g/ha: Viola tricolor, 504 h
Experimental: (§1) [table] Seeds of monocotyledonous and dicotyledonous weeds and crop plants are placed in sandy loam in plastic or wood-fiber pots, covered with soil and cultivated in a greenhouse under controlled growth conditions. 2 to 3 weeks after sowing, the test plants are treated at the one-leaf stage. The compounds of the invention, formulated in the form of wettable powders (WP) or as emulsion concentrates (EC), are then sprayed onto the green parts of the plants as aqueous suspension or emulsion with addition of 0.5% additive at a water application rate of 600 l/ha (converted). After the test plants had been kept in the greenhouse under optimum growth conditions for about 3 weeks, the activity of the preparations is rated visually in comparison to untreated controls. For example, 100% activity=the plants have died, 0% activity=like control plants.

Abutilon theophrasti = test: Post-emergence herbicidal activity against ABUTH; details: dosage 320 g/ha, rated visually after about 3 weeks
Experimental: as §1

Lolium rigidum [2] = test: Post-emergence herbicidal activity against LOLRI; details: dosage 320 g/ha, rated visually after about 3 weeks
Experimental: as §1

Echinochloa crus-galli = test: Post-emergence herbicidal activity against ECHCG; details: dosage 320 g/ha, rated visually after about 3 weeks; for pest or weed control at 320 g/ha: Echinochloa crus-galli, 504 h
Experimental: as §1

Avena fatua [3] = test: Post-emergence herbicidal activity against AVEFA; details: dosage 320 g/ha, rated visually after about 3 weeks; for pest or weed control at 320 g/ha: Avena fatua, 504 h
Experimental: as §1

Alopecurus myosuroides [4] = test: Post-emergence herbicidal activity against ALOMY; details: dosage 320 g/ha, rated visually after about 3 weeks; for pest or weed control at 320 g/ha: Alopecurus myosuroides, 504 h
Experimental: as §1

Pharbitis purpurea = test: Post-emergence herbicidal activity against PHBPU; details: dosage 320 g/ha, rated visually after about 3 weeks; for pest or weed control at 320 g/ha: Ipomoea purpurea, 504 h
Experimental: as §1

Amaranthus retroflexus [5] = test: Post-emergence herbicidal activity against AMARE; details: dosage 320 g/ha, rated visually after about 3 weeks; for pest or weed control at 320 g/ha: Amaranthus retroflexus, 504 h
Experimental: as §1

Polygonum convolvulus [6] = test: Post-emergence herbicidal activity against POLCO; details: dosage 320 g/ha, rated visually after about 3 weeks; for pest or weed control at 320 g/ha: Fallopia convolvulus, 504 h
Experimental: as §1

Stellaria media [7] = test: Post-emergence herbicidal activity against STEME; details: dosage 320 g/ha, rated visually after about 3 weeks; for pest or weed control at 320 g/ha: Stellaria media, 504 h
Experimental: as §1

Setaria viridis [8] = test: Post-emergence herbicidal activity against SETVI; details: dosage 320 g/ha, rated visually after about 3 weeks; for pest or weed control at 320 g/ha: Setaria viridis, 504 h
Experimental: as §1

Veronica persica [9] = test: Post-emergence herbicidal activity against VERPE; details: dosage 320 g/ha, rated visually after about 3 weeks; for pest or weed control at 320 g/ha: Veronica persica, 504 h
Experimental: as §1

Hordeum murinum [10] = test: Post-emergence herbicidal activity against HORMU; details: dosage 320 g/ha, rated visually after about 3 weeks
Experimental: as §1

Veronica persica [11] = test: Pre-emergence herbicidal activity against VERPE; details: dosage 80 g/ha
Excerpt: (§2) 1. Pre-emergence herbicidal action against harmful plants and crop plant compatibility Seeds of monocotyledonous and dicotyledonous weed plants and crop plants are placed in plastic or wood fiber pots and covered with soil. The compounds of the invention, formulated in the form of wettable powders (WP) or as emulsion concentrates (EC), are then applied onto the surface of the covering soil as aqueous suspension or emulsion with addition of 0.5% additive at a water application rate of 600 l/ha (converted). After the treatment, the pots are placed in a greenhouse and kept under good growth conditions for the trial plants. After about 3 weeks, the effect of the preparations is scored visually in comparison with untreated controls as percentages. For example, 100% activity=the plants have died, 0% activity=like control plants. [table]

Alopecurus myosuroides [12] = test: Pre-emergence herbicidal activity against ALOMY; details: dosage 80 g/ha, scored visually after about 3 weeks vs untreated controls; for pest or weed control at 80 g/ha: Alopecurus myosuroides, 504 h
Excerpt: as §2

Stellaria media [13] = test: Pre-emergence herbicidal activity against STEME; details: dosage 80 g/ha, scored visually after about 3 weeks vs untreated controls
Excerpt: as §2

Avena fatua [14] = test: Pre-emergence herbicidal activity against AVEFA; details: dosage 80 g/ha, scored visually after about 3 weeks vs untreated controls
Excerpt: as §2

Viola tricolor [15] = test: Pre-emergence herbicidal activity against VIOTR; details: dosage 80 g/ha, scored visually after about 3 weeks vs untreated controls
Excerpt: as §2

Lolium rigidum [16] = test: Pre-emergence herbicidal activity against LOLRI; details: dosage 80 g/ha, scored visually after about 3 weeks vs untreated controls
Excerpt: as §2

Polygonum convolvulus [17] = test: Pre-emergence herbicidal activity against POLCO; details: dosage 80 g/ha, scored visually after about 3 weeks vs untreated controls; for pest or weed control at 80 g/ha: Fallopia convolvulus, 504 h
Excerpt: as §2

Amaranthus retroflexus [18] = test: Pre-emergence herbicidal activity against AMARE; details: dosage 80 g/ha, scored visually after about 3 weeks vs untreated controls
Excerpt: as §2

Setaria viridis [19] = test: Pre-emergence herbicidal activity against SETVI; details: dosage 80 g/ha, scored visually after about 3 weeks vs untreated controls
Excerpt: as §2

Hordeum murinum [20] = test: Pre-emergence herbicidal activity against HORMU; details: dosage 80 g/ha
Excerpt: as §2

SMILES	Post-emergence herbicidal activity in % against VIOTR (Viola tricolor [1]) [%]	Post-emergence herbicidal activity in % against ABUTH (Abutilon theophrasti) [%]	Post-emergence herbicidal activity in % against LOLRI (Lolium rigidum [2]) [%]	Post-emergence herbicidal activity in % against ECHCG (Echinochloa crus-galli) [%]	Post-emergence herbicidal activity in % against AVEFA (Avena fatua [3]) [%]	Post-emergence herbicidal activity in % against ALOMY (Alopecurus myosuroides [4]) [%]	Post-emergence herbicidal activity in % against PHBPU (Pharbitis purpurea) [%]	Post-emergence herbicidal activity in % against AMARE (Amaranthus retroflexus [5]) [%]	Post-emergence herbicidal activity in % against POLCO (Polygonum convolvulus [6]) [%]	Post-emergence herbicidal activity in % against STEME (Stellaria media [7]) [%]	Post-emergence herbicidal activity in % against SETVI (Setaria viridis [8]) [%]	Post-emergence herbicidal activity in % against VERPE (Veronica persica [9]) [%]	Post-emergence herbicidal activity in % against HORMU (Hordeum murinum [10]) [%]	pest or weed control at 320 g/ha (Avena fatua [3]) [%]	pest or weed control at 320 g/ha (Alopecurus myosuroides [4]) [%]	pest or weed control at 320 g/ha (Pharbitis purpurea) [%]	pest or weed control at 320 g/ha (Polygonum convolvulus [6]) [%]	pest or weed control at 320 g/ha (Veronica persica [9]) [%]	pest or weed control at 320 g/ha (Stellaria media [7]) [%]	pest or weed control at 320 g/ha (Setaria viridis [8]) [%]	further results
CCCS(=O)(=O)NC(=O)[C@@H]1C[C@H](NC(=O)[C@@]2(C)CC(c3cc(F)cc(F)c3)=NO2)CO1 [Example I-28]	90	80	100	90	100	90	90	80	80	90	90	90	90	–	–	–	–	–	–	–	–
CC1(C(=O)NC2COCC2C(=O)NC2CC2)CC(c2cc(F)cc(F)c2)=NO1 (centres unmarked) [Example I-08, N-[4-(cyclopropylcarbamoyl)tetrahydrofuran-3-yl]-3-(3,5-difluorophenyl)-5-methyl-4H-isoxazole-5-carboxamide]	–	–	–	–	–	–	–	–	–	–	–	–	–	80	90	80	80	80	–	–	pest or weed control at 80 g/ha (Veronica persica [11]; Veronica persica, 504 h): 90%; pest or weed control at 80 g/ha (Alopecurus myosuroides [12]): 90%
C[C@]1(C(=O)N[C@@H]2CO[C@H](C(=O)NCc3ncc(C(F)(F)F)cc3Cl)C2)CC(c2cc(F)cc(F)c2)=NO1 [Example I-27]	80	–	90	100	100	90	90	–	80	90	80	80	100	–	–	–	–	–	–	–	Pre-emergence herbicidal activity in % against STEME (Stellaria media [13]): 90%; Pre-emergence herbicidal activity in % against ALOMY (Alopecurus myosuroides [12]): 90%; Pre-emergence herbicidal activity in % against AVEVA (AVEFA) (Avena fatua [14]): 80%
C=CC1(C(=O)NC2COC(C(=O)NC(C)CC(=O)OCC)C2)CC(c2cc(F)cc(F)c2)=NO1 (centres unmarked) [Example I-22]	80	80	100	100	100	100	90	90	80	80	90	80	100	–	–	–	–	–	–	–	Pre-emergence herbicidal activity in % against VERPE (Veronica persica [11]): 100%; Pre-emergence herbicidal activity in % against VIOTR (Viola tricolor [15]): 100%; Pre-emergence herbicidal activity in % against LOLRI (Lolium rigidum [16]): 100%; Pre-emergence herbicidal activity in % against POLCO (Polygonum convolvulus [17]): 100%; Pre-emergence herbicidal activity in % against STEME (Stellaria media [13]): 90%; Pre-emergence herbicidal activity in % against ALOMY (Alopecurus myosuroides [12]): 100%; Pre-emergence herbicidal activity in % against AVEVA (AVEFA) (Avena fatua [14]): 100%; Pre-emergence herbicidal activity in % against AMARE (Amaranthus retroflexus [18]): 100%; Pre-emergence herbicidal activity in % against SETVI (Setaria viridis [19]): 100%; Pre-emergence herbicidal activity in % against HORMU (Hordeum murinum [20]): 100%
CC1(C(=O)N[C@@H]2CO[C@H](C(=O)NC3CC3)C2)CC(c2cc(F)cc(F)c2)=NO1 (relative stereo) [Example I-04, N-[cis-5-(cyclopropylcarbamoyl)tetrahydrofuran-3-yl]-3-(3,5-difluorophenyl)-5-methyl-4H-isoxazole-5-carboxamide]	–	–	–	–	–	–	–	–	–	–	–	–	–	100	90	80	80	80	80	90	pest or weed control at 320 g/ha (Viola tricolor [1]): 80%; pest or weed control at 80 g/ha (Polygonum convolvulus [17]): 90%; pest or weed control at 80 g/ha (Alopecurus myosuroides [12]): 80%; pest or weed control at 320 g/ha (Echinochloa crus-galli): 80%
CC1(C(=O)N[C@@H]2CO[C@H](C(=O)N3CCCC3)C2)CC(c2cc(F)cc(F)c2)=NO1 (relative stereo) [Example I-03, 3-(3,5-difluorophenyl)-5-methyl-N-[cis-5-(pyrrolidine-1-carbonyl)tetrahydrofuran-3-yl]-4H-isoxazole-5-carboxamide]	–	–	–	–	–	–	–	–	–	–	–	–	–	90	80	80	80	90	90	90	pest or weed control at 320 g/ha (Viola tricolor [1]): 80%; pest or weed control at 80 g/ha (Polygonum convolvulus [17]): 80%; pest or weed control at 80 g/ha (Stellaria media [13]; Stellaria media, 504 h): 80%; pest or weed control at 320 g/ha (Echinochloa crus-galli): 80%; pest or weed control at 320 g/ha (Amaranthus retroflexus [5]): 80%
C=CC1(C(=O)N[C@@H]2CO[C@H](C(=O)N3CCCC3)C2)CC(c2cc(F)cc(F)c2)=NO1 (relative stereo) [Example I-06, 3-(3,5-difluorophenyl)-N-[cis-5-(pyrrolidin-1-carbonyl)tetrahydrofuran-3-yl]-5-vinyl-4H-isoxazole-5-carboxamide]	–	–	–	–	–	–	–	–	–	–	–	–	–	90	90	80	80	80	80	80	pest or weed control at 320 g/ha (Amaranthus retroflexus [5]): 80%
C=C[C@]1(C(=O)N[C@@H]2CO[C@H](C(=O)NS(=O)(=O)CCC)C2)CC(c2cc(F)cc(F)c2)=NO1 [Example I-29]	90	90	90	90	90	90	90	90	90	90	90	90	90	–	–	–	–	–	–	–	–
